# According to the METLIN SMRT retention time set (Domingo-Almenara et al. 2019):
# Test: gradient 5% acetonitrile 3 min, to 50% in 2 min, to 85% in 15 min, held 3 min, 100 µL/min
# Conditions: column: Zorbax Extend-C18 2.1 x 50 mm; eluents: water / acetonitrile, 0.1% formic acid
# Outline: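 Mixtures of ~100 pure standards were chromatographed on a Zorbax Extend-C18 column (2.1 × 50 mm, 1.8 μm) at 100 μL/min using water and acetonitrile, each with 0.1% formic acid. Detection used a quadrupole time-of-flight mass spectrometer in positive and negative ionization mode, and data collection spanned 3 months. Retention time was obtained from adduct peaks picked computationally and each checked manually.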
row,SMILES,RP-LC retention time [s]
1,COCCCNC(=O)C1CCN(c2ncccc2S(=O)(=O)N2CCOCC2)CC1,613
2,CCOc1ccc(NC(=O)c2cc(=O)c3cc(Cl)c(C)cc3o2)c2cccnc12,714
3,Cc1ccccc1NC(=O)N(C)CCc1noc(COc2ccccc2F)n1,926
4,CN1CCCN(C(=O)CCc2ccc3c(ccn3C)c2)CC1,605
5,Cc1ccc2nc(C(=O)NCc3ccc(C)o3)cn2c1,660
6,O=C(Cn1ncn2nc(-c3ccccc3)cc2c1=O)NCCCN1CCCC1,602
7,Cc1nc2cc(-c3noc(-c4cccc(F)c4)n3)ccc2n(C)c1=O,1020
8,Cc1ccn2cc(C(=O)NCC3CCCCC3)nc2c1,714
9,O=c1n(Cc2ccc(Cl)cc2)nc2c(S(=O)(=O)N3CCOCC3)cccn12,808
10,CCOC(=O)c1c(C)[nH]c(C(=O)N2CCCC(C(=O)NCCN3CCCCCC3)C2)c1C (stereo not given),578
11,O=C(Cn1cccc(-c2nc(-c3ccc(Cl)cc3)no2)c1=O)Nc1ccc(F)cc1,956
12,COc1ccc(C(O)CN2CCN(c3ccccc3C)CC2)cc1OC (stereo not given),654
13,CCc1ccc(C2=C(C)C(N3CCCN(C(=O)c4cccs4)CC3)=NS2(=O)=O)cc1,893
14,Cc1cc(C)cc(S(=O)(=O)NCc2c(-c3ccccc3)nc3sc(C)nn23)c1,921
15,O=C(NC1CCCCC1)c1ccc2ccnc(N3CCN(c4ccc(Cl)cc4)CC3)c2c1,986
16,Cc1cc(C)c(C(=O)N2CCCC(C(=O)NCc3cccc(Br)c3)C2)[nH]1 (stereo not given),855
17,COc1cccc(C(=O)Nc2ccc3c(c2)Sc2ncccc2C(=O)N3C)c1,785
18,O=C(Nc1cc(-c2ccsc2)no1)c1ccc(F)c(F)c1,982
19,O=c1c2ccccc2ccc2ccccc12,1120
20,CCc1noc(C2(NC(=O)c3ccccc3Cl)CCCCC2)n1,936
21,O=C(N1CCC(c2nnc(-c3ccc(F)cc3)o2)CC1)C1(c2ccccc2)CCOCC1,631
22,Cc1cccc2c(=O)n(C)c(CCC(=O)NCc3cc(F)ccc3F)nc12,814
23,O=C(NCCn1c(=O)n(Cc2ccccc2)c2cccnc21)c1nccc2ccccc12,836

row,SMILES,RP-LC retention time [s]
1,CC(C)(C)N(C(=O)c1ccccc1[N+](=O)[O-])C(=O)N1CCCCC1,828
2,Cc1ccc(C)c(N2CCN(C(=O)CN(C)S(=O)(=O)c3ccc4c(c3)CCCC(=O)N4)CC2)c1,908
3,CSc1ccc(-c2noc(Cc3nnc(-c4cccc(Br)c4)o3)n2)cc1,1170
4,Cc1noc(C2CN(C(=O)c3cnn(C)c3)CC23CCCC3)n1 (stereo not given),684
5,O=C(Nc1ccc(-c2nc(-c3ccccc3)co2)cc1)c1ccc(Br)o1,1190
6,COc1cc(NC(=O)c2nc(C)oc2C)cc(OC)c1,750
7,O=C(c1ccc(Cl)nc1)c1cccs1,897
8,Cc1cccc2sc(NC(=O)C3(c4cccs4)CCOCC3)nc12,987
9,Cc1ccccc1S(=O)(=O)N1CCC(CCC(=O)NC2CCS(=O)(=O)C2)CC1 (stereo not given),726
10,COc1cc(OC)cc(C(=O)Nc2nc(C(=O)NC(C)c3ccccc3)cs2)c1 (stereo not given),873
11,Cn1nccc1-c1csc(S(=O)(=O)NC2CCCCC2)c1,877
12,O=C(CN1C(=O)CCc2cc(Br)ccc21)N1CCN(c2ccc(F)cc2)CC1,949
13,O=C(Cc1ccsc1)Nc1ccc(N2CCN(c3ccccc3)C2=O)nc1,811
14,O=C(NCc1cccs1)C1CCCN(C(=O)C2Sc3ccccc3NC2=O)C1 (stereo not given),725
15,Cc1nn2c(CNC(=O)c3ccccn3)c(-c3ccccc3)nc2s1,796
16,CN1C(=O)c2cc(C(=O)Nc3cccc(Cl)c3)nn2CC1(C)C(=O)NC1CCCCC1 (stereo not given),860
17,COCC1CN(C(=O)CN2CCCC2=O)CCC1(F)F (stereo not given),598
18,Cc1ccc(-n2nc(C)c3sc(N4CCCC(C(=O)Nc5cccc(Cl)c5C)C4)nc32)cc1 (stereo not given),1310
19,O=C(Cn1nc(N2CCOCC2)c2ccccc2c1=O)Nc1cccc(Br)c1,844
20,Cc1cc(C)c(NC(=O)Cn2cnc3onc(C)c3c2=O)c(C)c1,764
21,Cc1ccc(NC(=O)C2CCN(S(C)(=O)=O)c3cc(C)ccc3O2)cc1 (stereo not given),976
22,CC(C(=O)NCCCN1CCCCCC1)n1ccc2cc(S(=O)(=O)N3CCCCCC3)ccc21 (stereo not given),604

# The next lines start with the values.
row,RP-LC retention time [s],SMILES
1,579,O=C1CCc2cc(NC(=O)c3cccnc3)ccc2N1
2,606,O=C(CCS(=O)(=O)c1ccccc1)N1CC(c2nc(-c3cnccn3)no2)C1
3,697,CNC(=O)C1CN(S(=O)(=O)c2cccs2)CC12CCCCC2 (stereo not given)
4,880,O=C(CN1CCc2ccccc2C1C(=O)N1CCCC1)NCc1ccc(C(F)(F)F)cc1 (stereo not given)
5,723,O=C(C1CCN(c2cnc3nccnc3c2)CC1)N1CCN(c2ccc(F)cc2)CC1
6,744,COC(=O)c1c(NCCc2c[nH]c3ccccc23)c2ccccc2[nH]c1=O
7,833,COc1ccc(C2CC(=O)N(c3ccc4c(c3)OCCO4)C(=O)C2)cc1
8,905,COCCCNS(=O)(=O)c1ccccc1-c1nc(-c2ccc(F)cc2)no1
9,710,COc1ccc(CNC(=O)C2CCCN(c3cnc4nc(C)c(C)nc4c3)C2)cc1 (stereo not given)
10,561,CNC(=O)c1cc(C)nc2ccc(C)cc12
11,1180,CCOc1ccc(S(=O)(=O)N2CCC(c3noc(-c4ccccc4C)n3)CC2)cc1
12,586,Cc1ccc(CN2CCN(CC(=O)N3CCN(c4ccccn4)CC3)C(=O)C2=O)cc1
13,732,COC(=O)c1cnc2nc(C)ccc2c1Nc1ccc(Br)cc1C
14,587,COc1cccc2nnc(NC(=O)CCC(=O)NCC(C)C)n12
15,653,CCC(=O)Nc1ccc(-n2cnc(C(=O)N3CCN(c4ccc(OC)cc4)CC3)c2)nc1
16,822,CC(C)S(=O)(=O)c1cc2c(cc1NC(=O)c1ccccc1Br)n(C)c(=O)n2C
17,720,CC(C)NC(=O)C1CCCN(C(=O)Nc2ccc(NC(=O)Nc3ccccc3)cc2)C1 (stereo not given)
18,712,CCCNC(=O)C1CCCN(c2ccc(SCC(=O)Nc3ccc(Cl)cc3)nn2)C1 (stereo not given)
19,881,Cc1cccc(N2CCN(S(=O)(=O)c3ccc4c(c3)CCCC(=O)N4)CC2C)c1 (stereo not given)
20,695,CCN(CC)C(=O)CN1C(=O)COc2ccc(C(=O)N3CCCCC3)cc21
21,676,O=C(NC1CCN(c2cc(-c3ccccc3)[nH]n2)CC1)c1ccoc1
22,896,O=C(Cc1ccccc1Cl)Nc1nnc(-c2ccc(OC(F)(F)F)cc2)o1
23,695,C=CC(=O)Nc1cccc(Oc2nc(Nc3ccc(N4CCN(C)CC4)cc3)ncc2Cl)c1

row,RP-LC retention time [s],SMILES
1,694,O=C(CN1C(=O)COc2ccc(C(=O)N3CCCC3)cc21)Nc1ccccc1F
2,728,Cc1nn2c(CNC(=O)c3ccco3)c(-c3ccccc3)nc2s1
3,942,CCc1cccc(NC(=O)C2CCN(S(=O)(=O)c3ccc4c(c3)CC(C)N4C(C)=O)CC2)c1 (stereo not given)
4,963,COCCn1cc2c3c(cccc31)CN(C(=O)Nc1cc(F)cc(F)c1)CC2
5,1130,Cc1sc(C)c(S(=O)(=O)N2CCCC2)c1-c1cc(C(F)(F)F)on1
6,1020,COc1ccccc1Cc1nc(-c2cn(-c3ccc(F)cc3)nn2)no1
7,823,Cc1ccc(C)c(NC(=O)NC2CCN(c3ccccc3)C2=O)c1 (stereo not given)
8,806,O=C(Nc1cccc(F)c1)C1CCCN(c2nnc3ccc(Cl)cn23)C1 (stereo not given)
9,729,Cc1noc(-c2nn(C)c3c2CN(C(=O)COc2ccccc2)CC3)n1
10,875,CC(C)c1nc(NCc2ccc(F)cc2F)ncc1C(=O)O
11,735,O=C(CN1CCN(C(=O)Nc2ccc(Br)cc2)CC1=O)NC1CCCCC1
12,617,CCc1cc(=O)n(CC(=O)Nc2ccc(C)cc2)c(N)n1
13,790,O=C(NCc1ccco1)C1CCN(Cc2cc3ccccc3n2Cc2ccccc2Cl)CC1
14,919,Cc1ccc(CNC(=O)c2c(C)oc3ccn(C)c(=O)c23)cc1
15,679,CC(C)(C)NC(=O)N1CCC(CNC(=O)c2ccc3nsnc3c2)CC1
16,700,CCOc1ccc(C2C(C(=O)OCCOC)=C(C)NC3=C2C(=O)CCC3)cc1OC (stereo not given)
17,1150,Cc1ccc(Sc2nccnc2N2CCCC(C(=O)NCc3ccccc3Cl)C2)cc1 (stereo not given)
18,844,O=C(c1cc(F)ccc1F)N1CCCC2(C1)NC(=O)N(Cc1ccc(Cl)cc1)C2=O (stereo not given)
19,609,COc1ccc(C2c3cc4c(c(OC)c3CC3OCC(=O)C32)OCO4)cc1OC (stereo not given)
20,1190,O=S(=O)(c1ccc(-c2noc(-c3cccc(Br)c3)n2)cc1)N1CCOCC1
21,745,CC(C)OCCCNC(=O)Cn1c2ccccc2c2cnn(C)c(=O)c21
22,945,Cc1ccc(NC(=O)N2CCCC(C)(C(=O)NCc3ccccc3)C2)cc1F (stereo not given)
